Test results from patent publication US12655106B2 (Eikonizo Therapeutics, Inc., priority 2021, dated 2026).

How the values were obtained:
Full length Human HDAC6 = target: T1, Full length Human HDAC6 (Homo sapiens, UniProt Q9UBN7); test: Caliper endpoint assay for HDAC enzymatic activity (HDAC6); type: biochemical; details: for IC50: in vitro enzymatic, Caliper endpoint assay, 30 min pre-incubation, 1 μM substrate peptide; for Selectivity (6 v 8): ratio of HDAC8 IC50/HDAC6 IC50
T1 construct: Full length Human HDAC6; FLAG (C); host or cells: baculovirus expression system
T1 sequence (Q9UBN7 1-1215): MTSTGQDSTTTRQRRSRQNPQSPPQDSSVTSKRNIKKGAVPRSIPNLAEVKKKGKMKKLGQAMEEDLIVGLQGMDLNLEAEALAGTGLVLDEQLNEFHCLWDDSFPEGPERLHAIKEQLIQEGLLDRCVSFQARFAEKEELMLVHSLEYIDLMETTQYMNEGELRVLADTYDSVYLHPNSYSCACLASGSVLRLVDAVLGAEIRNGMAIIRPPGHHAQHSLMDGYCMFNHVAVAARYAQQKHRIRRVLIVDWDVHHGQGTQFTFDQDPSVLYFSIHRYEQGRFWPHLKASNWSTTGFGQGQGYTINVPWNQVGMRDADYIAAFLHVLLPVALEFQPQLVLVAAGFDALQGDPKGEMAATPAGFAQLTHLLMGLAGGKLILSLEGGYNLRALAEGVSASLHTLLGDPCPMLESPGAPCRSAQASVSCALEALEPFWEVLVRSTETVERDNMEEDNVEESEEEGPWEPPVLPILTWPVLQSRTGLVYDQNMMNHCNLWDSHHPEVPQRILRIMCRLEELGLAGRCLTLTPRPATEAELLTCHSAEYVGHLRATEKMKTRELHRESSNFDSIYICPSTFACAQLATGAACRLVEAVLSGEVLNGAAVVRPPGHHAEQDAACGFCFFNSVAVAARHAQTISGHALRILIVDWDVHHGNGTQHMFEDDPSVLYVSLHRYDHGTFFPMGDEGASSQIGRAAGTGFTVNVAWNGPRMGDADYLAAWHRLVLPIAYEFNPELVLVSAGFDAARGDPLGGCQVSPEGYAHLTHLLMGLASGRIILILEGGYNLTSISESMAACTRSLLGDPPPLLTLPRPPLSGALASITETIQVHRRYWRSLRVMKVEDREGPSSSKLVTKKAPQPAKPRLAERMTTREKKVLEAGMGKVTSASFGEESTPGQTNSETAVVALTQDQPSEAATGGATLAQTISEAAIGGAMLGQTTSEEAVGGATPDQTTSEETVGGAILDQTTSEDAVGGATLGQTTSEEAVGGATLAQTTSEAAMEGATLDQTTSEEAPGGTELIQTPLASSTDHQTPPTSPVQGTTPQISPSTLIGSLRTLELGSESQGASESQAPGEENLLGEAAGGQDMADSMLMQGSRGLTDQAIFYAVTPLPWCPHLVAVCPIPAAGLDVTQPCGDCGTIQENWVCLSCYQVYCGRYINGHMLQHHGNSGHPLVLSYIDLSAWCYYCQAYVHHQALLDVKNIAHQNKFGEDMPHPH

Full length Human HDAC8 = target: T2, Full length Human HDAC8 (Homo sapiens, UniProt Q9BY41); test: Caliper endpoint assay for HDAC enzymatic activity (HDAC8); type: biochemical; details: in vitro enzymatic, 30 min pre-incubation, 1 μM substrate peptide
T2 construct: Full length Human HDAC8; HIS (N); host or cells: baculovirus expression system
T2 sequence (Q9BY41 1-377): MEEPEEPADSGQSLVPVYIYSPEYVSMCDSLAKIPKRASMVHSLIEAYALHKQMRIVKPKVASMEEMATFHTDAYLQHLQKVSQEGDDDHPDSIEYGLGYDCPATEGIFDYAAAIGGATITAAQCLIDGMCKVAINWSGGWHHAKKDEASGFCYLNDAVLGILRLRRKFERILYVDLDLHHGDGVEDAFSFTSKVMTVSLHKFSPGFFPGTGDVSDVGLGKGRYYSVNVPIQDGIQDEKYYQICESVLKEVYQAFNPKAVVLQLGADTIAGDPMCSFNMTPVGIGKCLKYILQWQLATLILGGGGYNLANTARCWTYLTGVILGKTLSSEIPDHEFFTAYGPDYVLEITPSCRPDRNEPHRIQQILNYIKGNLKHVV

Row | SMILES | IC50 (Full length Human HDAC6) [µM] | Selectivity (6 v 8) (Full length Human HDAC6) | IC50 (Full length Human HDAC8) [µM]
1 | O=C(NO)c1cc(F)c2c(c1)CCN(C1CC3(CCOC3)C1)C2 (single isomer, unassigned) [Compound 189, 8-fluoro-N-hydroxy-2-(6-oxaspiro[3.4]octan-2-yl)-1,2,3,4-tetrahydroisoquinoline-6-carboxamide] | 0.001 to 0.1 | IV (IV: >100-1000) | 10 to 100
2 | O=C(NO)c1cc(F)c2c(c1)CCN(C1CC3(CCCO3)C1)C2 (single isomer, unassigned) [Compound 190, 8-fluoro-N-hydroxy-2-(5-oxaspiro[3.4]octan-2-yl)-1,2,3,4-tetrahydroisoquinoline-6-carboxamide] | 0.001 to 0.1 | IV (IV: >100-1000) | 1 to 10
3 | O=C(NO)c1cc(F)c2c(c1)CCN(C1CC3(CCCO3)C1)C2 (single isomer, unassigned) [Compound 191, 8-fluoro-N-hydroxy-2-(5-oxaspiro[3.4]octan-2-yl)-1,2,3,4-tetrahydroisoquinoline-6-carboxamide] | 0.001 to 0.1 | IV (IV: >100-1000) | 10 to 100
4 | O=C(NO)c1cc(F)c2c(c1)CCN([C@@H]1CCCC3(CCC3)C1)C2 (single isomer, unassigned) [Compound 194] | 0.001 to 0.1 | V (V: >1000) | 10 to 100
5 | O=C(NO)c1cc(F)c2c(c1)CCN([C@H]1CCCC3(CCC3)C1)C2 (single isomer, unassigned) [Compound 195] | 0.001 to 0.1 | IV (IV: >100-1000) | 10 to 100
6 | O=C(NO)c1cc(F)c2c(c1)CN(C[C@@H]1CCCCO1)CC2 (single isomer, unassigned) [Compound 214] | 0.001 to 0.1 | III (III: >10-100) | 1 to 10
7 | O=C(NO)c1cc(F)c2c(c1)CN(C[C@H]1CCCCO1)CC2 (single isomer, unassigned) [Compound 215] | 0.001 to 0.1 | II (II: >1-10) | 0.1 to 1
8 | CC[C@H]1Cc2c(F)cc(C(=O)NO)cc2CN1CC1COC1 (single isomer, unassigned) [Compound 216] | 0.001 to 0.1 | V (V: >1000) | > 100
9 | CC[C@@H]1Cc2c(F)cc(C(=O)NO)cc2CN1CC1COC1 (single isomer, unassigned) [Compound 217] | 0.001 to 0.1 | IV (IV: >100-1000) | 10 to 100
10 | CC[C@@H]1Cc2c(F)cc(C(=O)NO)cc2CN1C[C@@H]1CCCCO1 (single isomer, unassigned) [Compound 228] | 0.001 to 0.1 | III (III: >10-100) | 1 to 10
11 | CC[C@H]1Cc2c(F)cc(C(=O)NO)cc2CN1C[C@@H]1CCCCO1 (single isomer, unassigned) [Compound 229] | 0.1 to 1 | III (III: >10-100) | 1 to 10
12 | CC[C@@H]1Cc2c(F)cc(C(=O)NO)cc2CN1C[C@H]1CCCCO1 (single isomer, unassigned) [Compound 230] | 0.001 to 0.1 | III (III: >10-100) | 1 to 10
13 | CC[C@H]1Cc2c(F)cc(C(=O)NO)cc2CN1C[C@H]1CCCCO1 (single isomer, unassigned) [Compound 231] | 0.001 to 0.1 | IV (IV: >100-1000) | 1 to 10
14 | CC[C@@H]1Cc2c(F)cc(C(=O)NO)cc2CN1C1CC2(CCCCC2)C1 (single isomer, unassigned) [Compound 232] | 0.1 to 1 | IV (IV: >100-1000) | 10 to 100
15 | CC[C@H]1Cc2c(F)cc(C(=O)NO)cc2CN1C1CC2(CCCCC2)C1 (single isomer, unassigned) [Compound 233] | 0.001 to 0.1 | IV (IV: >100-1000) | 10 to 100
16 | CC[C@@H](c1ccc(C(=O)NO)cc1F)N1CCC2(CCCCC2)C1 (single isomer, unassigned) [Compound 237] | 0.1 to 1 | II (II: >1-10) | 1 to 10
17 | CC[C@H](c1ccc(C(=O)NO)cc1F)N1CCC2(CCCCC2)C1 (single isomer, unassigned) [Compound 238] | 0.1 to 1 | III (III: >10-100) | 1 to 10
18 | CC(C)N1CC2(CCCCC2)CC[C@H]1Cc1cc(F)cc(C(=O)NO)c1 (single isomer, unassigned) [Compound 274] | 10 to 100 | I (I: 0.1-1) | 1 to 10
19 | CC(C)N1CC2(CCCCC2)CC[C@@H]1Cc1cc(F)cc(C(=O)NO)c1 (single isomer, unassigned) [Compound 275] | 1 to 10 | I (I: 0.1-1) | 1 to 10
20 | O=C(NO)c1cc(F)c2c(c1)CCN([C@H]1CC[C@@]13CCOC3)C2 (single isomer, unassigned) [Compound 315] | 0.001 to 0.1 | IV (IV: >100-1000) | 10 to 100
21 | O=C(NO)c1cc(F)c2c(c1)CCN([C@H]1CC[C@]13CCOC3)C2 (single isomer, unassigned) [Compound 316] | 0.001 to 0.1 | V (V: >1000) | 10 to 100
22 | O=C(NO)c1cc(F)c2c(c1)CCN([C@@H]1CC[C@@]13CCOC3)C2 (single isomer, unassigned) [Compound 317] | 0.001 to 0.1 | IV (IV: >100-1000) | 10 to 100
23 | O=C(NO)c1cc(F)c2c(c1)CCN([C@@H]1CC[C@]13CCOC3)C2 (single isomer, unassigned) [Compound 318] | 0.001 to 0.1 | V (V: >1000) | 10 to 100
24 | O=C(NO)c1cc(F)c2c(c1)CCN(C1CC[C@@]13CCCO3)C2 (single isomer, unassigned) [Compound 319] | 0.001 to 0.1 | IV (IV: >100-1000) | 1 to 10
25 | O=C(NO)c1cc(F)c2c(c1)CCN(C1CC[C@]13CCCO3)C2 (single isomer, unassigned) [Compound 320] | 0.001 to 0.1 | IV (IV: >100-1000) | 10 to 100
26 | CN1CC[C@@]2(CC[C@@H]2N2CCc3cc(C(=O)NO)cc(F)c3C2)C1 (single isomer, unassigned) [Compound 329] | 0.001 to 0.1 | III (III: >10-100) | 1 to 10
27 | CN1CC[C@]2(CC[C@@H]2N2CCc3cc(C(=O)NO)cc(F)c3C2)C1 (single isomer, unassigned) [Compound 330] | 0.001 to 0.1 | IV (IV: >100-1000) | 10 to 100
28 | CN1CC[C@@]2(CC[C@H]2N2CCc3cc(C(=O)NO)cc(F)c3C2)C1 (single isomer, unassigned) [Compound 331] | 0.001 to 0.1 | IV (IV: >100-1000) | 10 to 100
29 | CN1CC[C@]2(CC[C@H]2N2CCc3cc(C(=O)NO)cc(F)c3C2)C1 (single isomer, unassigned) [Compound 332] | 0.1 to 1 | III (III: >10-100) | 1 to 10
30 | O=C(NO)c1cc(F)c2c(c1)CCN([C@H]1C[C@]3(CCCCO3)C1)C2 (single isomer, unassigned) [Compound 339, 8-fluoro-2-(5-oxaspiro[3.5]nonan-2-yl)-3,4-dihydro-1H-isoquinoline-6-carbohydroxamic acid] | 0.001 to 0.1 | IV (IV: >100-1000) | 10 to 100
